{"source": "ChEMBL document CHEMBL3046189", "about": "“Synthesis of potent inhibitors of histidinol dehydrogenase” (Bioorg Med Chem Lett, 1996)", "key": {"[1]": {"system": "Oryza sativa", "assay": "Inhibition of root growth in Oryza sativa (rice) seedlings grown in agar containing basal salts", "assay_type": "functional, organism-based"}, "[2]": {"system": "Oryza sativa", "assay": "Inhibition of root growth in Oryza sativa (rice) seedlings grown in agar containing basal salts in presence of histidine", "assay_type": "functional, organism-based"}, "[3]": {"molecular_target": "T1, Histidinol dehydrogenase, chloroplastic (Brassica oleracea var. capitata, UniProt P24226)", "T1 sequence (P24226 whole entry)": "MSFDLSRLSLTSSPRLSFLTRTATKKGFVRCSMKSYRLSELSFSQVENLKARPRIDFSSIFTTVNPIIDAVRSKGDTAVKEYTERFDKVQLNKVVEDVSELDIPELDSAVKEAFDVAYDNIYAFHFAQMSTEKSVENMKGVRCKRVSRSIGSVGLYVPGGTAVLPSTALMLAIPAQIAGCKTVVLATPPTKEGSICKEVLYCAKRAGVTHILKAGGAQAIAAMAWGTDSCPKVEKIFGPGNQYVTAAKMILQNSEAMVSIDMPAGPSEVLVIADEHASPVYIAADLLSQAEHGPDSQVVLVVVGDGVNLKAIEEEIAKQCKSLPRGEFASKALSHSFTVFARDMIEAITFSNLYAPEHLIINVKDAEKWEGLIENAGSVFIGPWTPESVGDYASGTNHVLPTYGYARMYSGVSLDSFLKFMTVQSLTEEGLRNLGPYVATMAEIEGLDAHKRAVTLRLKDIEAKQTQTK", "assay": "Inhibition of Brassica oleracea (cabbage) histidinol dehydrogenase pre-incubated for 10 min before substrate histidinol addition by spectrophotometry"}, "[4]": {"molecular_target": "T2, Histidinol dehydrogenase (Escherichia coli (strain K12), UniProt P06988)", "T2 sequence (P06988 whole entry)": "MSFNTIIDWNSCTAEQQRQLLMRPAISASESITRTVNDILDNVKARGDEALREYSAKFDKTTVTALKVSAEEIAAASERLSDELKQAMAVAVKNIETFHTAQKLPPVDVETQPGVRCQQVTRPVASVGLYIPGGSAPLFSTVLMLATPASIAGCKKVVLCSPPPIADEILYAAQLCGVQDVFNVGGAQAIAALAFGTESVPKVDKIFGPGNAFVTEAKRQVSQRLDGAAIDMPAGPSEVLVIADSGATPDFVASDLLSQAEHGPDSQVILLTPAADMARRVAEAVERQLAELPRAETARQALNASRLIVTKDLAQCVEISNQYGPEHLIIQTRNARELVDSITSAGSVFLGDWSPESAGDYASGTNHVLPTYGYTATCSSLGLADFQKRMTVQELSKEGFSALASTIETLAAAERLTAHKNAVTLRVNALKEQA", "assay": "Inhibition of Escherichia coli histidinol dehydrogenase preincubated for 10 min before substrate histidinol addition by spectrophotometry"}, "[5]": {"molecular_target": "T3, Histidinol dehydrogenase, chloroplastic (Brassica oleracea var. capitata) (UniProt P24226)", "T3 sequence (whole entry)": "T1 sequence (P24226 whole entry)", "assay": "Ratio of histidinol IC50 to compound IC50 for Brassica oleracea (cabbage) histidinol dehydrogenase"}, "[6]": {"assay": "Ratio of IC50 for Escherichia coli histidinol dehydrogenase to IC50 for cabbage histidinol dehydrogenase"}, "[7]": {"molecular_target": "T2, Histidinol dehydrogenase", "assay": "Binding affinity to Escherichia coli histidinol dehydrogenase"}}, "note": "Activity calls are given as the source filed them. The calls are words filed in the database; no cut-off is given here."}
{"smiles": "Nc1cccc(CC(=O)[C@@H](N)Cc2c[nH]cn2)c1", "values": [{"measurement": "growth inhibition (GI)", "setting": "[1]", "value": "Active"}, {"measurement": "growth inhibition (GI)", "setting": "[2]", "value": "inactive"}, {"measurement": "IC50", "setting": "[3]", "value": 50, "unit": "nM"}, {"measurement": "Ki", "setting": "[3]", "value": 7.4, "unit": "nM"}]}
{"smiles": "N[C@@H](Cc1c[nH]cn1)C(=O)CCCc1ccccc1", "values": [{"measurement": "IC50", "setting": "[4]", "value": 80000, "unit": "nM"}]}
{"smiles": "N[C@@H](Cc1c[nH]cn1)C(=O)Cc1ccc(Br)cc1", "values": [{"measurement": "growth inhibition (GI)", "setting": "[1]", "value": "Active"}, {"measurement": "IC50", "setting": "[3]", "value": 40, "unit": "nM"}, {"measurement": "Ki", "setting": "[3]", "value": 4.4, "unit": "nM"}, {"measurement": "Ratio IC50", "setting": "[5]", "value": "> 1000"}]}
{"smiles": "Nc1cc(CC(=O)[C@@H](N)Cc2c[nH]cn2)ccc1Br", "values": [{"measurement": "IC50", "setting": "[3]", "value": 8000, "unit": "nM"}]}
{"smiles": "COc1ccc(CC(=O)[C@@H](N)Cc2c[nH]cn2)cc1", "values": [{"measurement": "IC50", "setting": "[3]", "value": 1000, "unit": "nM"}]}
{"smiles": "N[C@@H](Cc1c[nH]cn1)C(=O)Cc1ccc(-c2ccccc2)cc1", "values": [{"measurement": "IC50", "setting": "[3]", "value": 40, "unit": "nM"}, {"measurement": "Ki", "setting": "[3]", "value": 2.9, "unit": "nM"}, {"measurement": "Ratio IC50", "setting": "[5]", "value": "> 1000"}]}
{"smiles": "CC(=O)C(N)Cc1c[nH]cn1", "note": "(stereo unspecified)", "values": [{"measurement": "IC50", "setting": "[4]", "value": 10000, "unit": "nM"}, {"measurement": "Ki", "setting": "[4]", "value": 5000, "unit": "nM"}]}
{"smiles": "N[C@@H](Cc1c[nH]cn1)C(=O)Cc1ccccc1Br", "values": [{"measurement": "IC50", "setting": "[3]", "value": 1000, "unit": "nM"}]}
{"smiles": "N[C@@H](Cc1c[nH]cn1)C(=O)CCc1ccccc1", "values": [{"measurement": "IC50", "setting": "[4]", "value": 100000, "unit": "nM"}]}
{"smiles": "Nc1ccc(CC(=O)[C@@H](N)Cc2c[nH]cn2)cc1", "values": [{"measurement": "IC50", "setting": "[3]", "value": 500, "unit": "nM"}]}
{"smiles": "N[C@@H](Cc1c[nH]cn1)C(=O)Cc1ccccc1", "values": [{"measurement": "IC50", "setting": "[4]", "value": 1000, "unit": "nM"}, {"measurement": "IC50", "setting": "[3]", "value": 100, "unit": "nM"}, {"measurement": "Ki", "setting": "[3]", "value": 7.6, "unit": "nM"}, {"measurement": "Ratio IC50", "setting": "[6]", "value": 10}]}
{"smiles": "N[C@@H](Cc1c[nH]cn1)C(=O)Cc1ccc(Cl)cc1", "values": [{"measurement": "IC50", "setting": "[3]", "value": 300, "unit": "nM"}]}
{"smiles": "N[C@@H](Cc1c[nH]cn1)C(=O)Cc1ccc(Br)c(Br)c1", "values": [{"measurement": "IC50", "setting": "[3]", "value": 50, "unit": "nM"}]}
{"smiles": "N[C@@H](Cc1c[nH]cn1)C(=O)C(F)(F)C(F)(F)F", "values": [{"measurement": "IC50", "setting": "[4]", "value": 20000, "unit": "nM"}]}
{"smiles": "N[C@@H](Cc1c[nH]cn1)C(=O)Cc1cccc(O)c1", "values": [{"measurement": "IC50", "setting": "[3]", "value": 300, "unit": "nM"}]}
{"smiles": "N[C@H](C=O)Cc1c[nH]cn1", "note": "[L-HISTIDINAL]", "values": [{"measurement": "Kd", "setting": "[7]", "value": 1.4, "unit": "nM"}]}
{"smiles": "N[C@@H](Cc1c[nH]cn1)C(=O)c1ccccc1", "values": [{"measurement": "IC50", "setting": "[4]", "value": "> 100000", "unit": "nM"}]}
{"smiles": "CCC(=O)C(N)Cc1c[nH]cn1", "note": "(stereo unspecified)", "values": [{"measurement": "IC50", "setting": "[4]", "value": "> 100000", "unit": "nM"}]}
{"smiles": "N[C@@H](Cc1c[nH]cn1)C(=O)Cc1cccc(Br)c1", "values": [{"measurement": "IC50", "setting": "[3]", "value": 100, "unit": "nM"}]}
